The target of one data set is SARS-CoV-2 PLpro (Severe acute respiratory syndrome coronavirus 2, UniProt P0DTD1). The data set is described as follows: FRET-based PLpro enzymatic assay. It counts as biochemical. The settings on record: 200 nM PLpro, 10 μM FRET substrate, 30 min preincubation at 30° C.; read-out: IC50. The method, then:
The SARS-CoV-2 PL^pro enzymatic assays were carried out as follows. The assay was assembled in 96-well plates with 100 μl of 200 nM PL^Pro protein in PL^Pro reaction buffer [50 mM Hepes (pH 7.5), 0.01% Triton X-100, and 5 mM DTT]. Then, 1 μl of testing compound at various concentrations was added to each well and incubated at 30° C. for 30 minutes. The enzymatic reaction was initiated by adding 1 μl of 1 mM FRET substrate (the final substrate concentration is 10 μM). The reaction was monitored in a Cytation 5 image reader with filters for excitation at 360/40 nm and emission at 460/40 nm at 30° C. for 1 hour. The initial velocity of the enzymatic reaction with and without testing compounds was calculated by linear regression for the first 15 minutes of the kinetic progress curve. The IC50 values were calculated by plotting the initial velocity against various concentrations of testing compounds with a dose-response function in Prism 8 software.

Data set [1] can be described thus: Cytotoxicity assay in Vero E6 cells (neutral red uptake). The data set is classed as cell-based. The note with it: African green monkey; Vero E6 cells, 2 days at 37° C., neutral red uptake; read-out: Vero CC50. The method, then:
Briefly, 80.000 cells/ml of the tested cell lines were dispensed into 96-well cell culture plates at 100 μl per well Twenty-four hours later, the growth medium was removed and washed with 150 μl of PBS buffer. Two hundred microliters of fresh serum-free medium containing serial diluted compounds was added to each well. After incubating for 2 days at 37° C., the medium was removed and replaced with 100 μl of DMEM medium containing neutral red (40 μg/ml) and incubated for 2 to 4 hours at 37° C. The amount of neutral red taken up was determined by measuring the absorbance at 540 nm using a Multiskan FC Microplate Photometer (Thermo Fisher Scientific) The CC50 values were calculated from best-fit dose-response curves with variable slope in Prism 8.

The values that follow come from patent publication US20240382494A1, “THERAPEUTIC COMPOUNDS” (priority 2023, published 2024).

As to `Cc1ccc(OCCN(C)C)cc1C(=O)N[C@H](C)c1cc(-c2cccs2)nc2ccccc12` [Example 1, (R)-5-(2-(dimethylamino)ethoxy)-2-methyl-N-(1-(2-(thiophen-2-yl)quinolin-4-yl)ethyl)benzamide], the IC50 at SARS-CoV-2 PLpro is less than 0.5 µM. Besides, the CC50 at 2 days in data set [1] worked out at 12.2 ± 0.85 µM.

Consider `Cc1ccc(OCCN(C)C)cc1C(=O)N[C@@H](C)c1cc(-c2cccs2)nc2ccccc12` [Example 2, (S)-5-(2-(dimethylamino)ethoxy)-2-methyl-N-(1-(2-(thiophen-2-yl)quinolin-4-yl)ethyl)benzamide], for which, at SARS-CoV-2 PLpro, the IC50 is 1 to 5 µM. In data set [1], the CC50 at 2 days came out at 11.4 ± 0.79 µM.

Take `Cc1ccc(OCCN(C)C)cc1C(=O)N[C@H](C)c1cc(-c2cnn(C(F)F)c2)nc2ccccc12` [Example 3, (R)—N-(1-(2-(1-(difluoromethyl)-1H-pyrazol-4-yl)quinolin-4-yl)ethyl)-5-(2-(dimethylamino)ethoxy)-2-methylbenzamide]: the IC50 at SARS-CoV-2 PLpro was less than 0.5 µM. In addition, the CC50 at 2 days in data set [1] worked out at 15.2 ± 2.54 µM.

As for `Cc1ccc(OCCN(C)C)cc1C(=O)N[C@H](C)c1cc(-c2ccco2)nc2ccccc12` [Example 4, (R)5-(2-(dimethylamino)ethoxy)-N-(1-(2-(furan-2-yl)quinolin-4-yl)ethyl)-2-methylbenzamide], the IC50 at SARS-CoV-2 PLpro is less than 0.5 µM. Also, the CC50 at 2 days in data set [1] came to 57.3 ± 20.4 µM.

As for `Cc1ccc(OCCN(C)C)cc1C(=O)N[C@H](C)c1cc(-c2cncs2)nc2ccccc12` [Example 5, (R)-5-(2-(dimethylamino)ethoxy)-2-methyl-N-(1-(2-(thiazol-5-yl)quinolin-4-yl)ethyl)benzamide], at SARS-CoV-2 PLpro, the IC50 is less than 0.5 µM. The CC50 at 2 days in data set [1] worked out at 44.7 ± 11.7 µM.

`COCCn1cc(-c2cc([C@@H](C)NC(=O)c3cc(OCCN(C)C)ccc3C)c3ccccc3n2)cn1` [Example 6, (R)-5-(2-(dimethylamino)ethoxy)-N-(1-(2-(1-(2-methoxyethyl)-1H-pyrazol-4-yl)quinolin-4-yl)ethyl)-2-methylbenzamide]: at SARS-CoV-2 PLpro, the IC50 is less than 0.5 µM. In addition, the CC50 at 2 days in data set [1] came to 200 ± 86.4 µM.

For the compound `Cc1ccc(OCCN(C)C)cc1C(=O)N[C@H](C)c1cc(-c2cnn(C)c2)nc2ccccc12` [Example 7, (R)-5-(2-(dimethylamino)ethoxy)-2-methyl-N-(1-(2-(1-methyl-1H-pyrazol-4-yl)quinolin-4-yl)ethyl)benzamide], the IC50 on SARS-CoV-2 PLpro was less than 0.5 µM.

As to `Cc1ccc(OCCN(C)C)cc1C(=O)N[C@H](C)c1cc(-c2cnn(C3CC3)c2)nc2ccccc12` [Example 8, (R)—N-(1-(2-(1-cyclopropyl-1H-pyrazol-4-yl)quinolin-4-yl)ethyl)-5-(2-(dimethylamino)ethoxy)-2-methylbenzamide], the IC50 at SARS-CoV-2 PLpro is less than 0.5 µM. Besides, the CC50 at 2 days in data set [1] amounted to 63.1 ± 8.7 µM.

`Cc1ccc(OCCN(C)C)cc1C(=O)N[C@H](C)c1cc(-c2ccc(N)nc2)nc2ccccc12` [Example 9, (R)—N-(1-(2-(6-aminopyridin-3-yl)quinolin-4-yl)ethyl)-5-(2-(dimethylamino)ethoxy)-2-methylbenzamide]: the IC50 at SARS-CoV-2 PLpro is less than 0.5 µM. Also, the CC50 at 2 days in data set [1] came out at 36.2 ± 6.83 µM.

As to `Cc1ccc(OCCN(C)C)cc1C(=O)N[C@H](C)c1cc(-c2cnn(CC(F)(F)F)c2)nc2ccccc12` [Example 10, (R)-5-(2-(dimethylamino)ethoxy)-2-methyl-N-(1-(2-(1-(2,2,2-trifluoroethyl)-1H-pyrazol-4-yl)quinolin-4-yl)ethyl)benzamide], the IC50 at SARS-CoV-2 PLpro was less than 0.5 µM. For the same compound, the half-maximal cytotoxic concentration (CC50) at 2 days in data set [1] amounted to 60.8 ± 14.1 µM.

Take `Cc1ccc(OCCN(C)C)cc1C(=O)N[C@H](C)c1cc(Cl)nc2ccccc12` [Example 11, (R)—N-(1-(2-chloroquinolin-4-yl)ethyl)-5-(2-(dimethylamino)-ethoxy)-2-methylbenzamide]: the IC50 on SARS-CoV-2 PLpro lay within 0.5 to 1 µM. The 50% cytotoxic concentration (CC50) at 2 days in data set [1] is 101 ± 11.3 µM.

In the case of `Cc1ccc(OCCN(C)C)cc1C(=O)N[C@H](C)c1cc(-c2cnn(CCN(C)C)c2)nc2ccccc12` [Example 12, (R)-5-(2-(dimethylamino)ethoxy)-N-(1-(2-(1-(2-(dimethylamino)ethyl)-1H-pyrazol-4-yl)quinolin-4-yl)ethyl)-2-methylbenzamide], the IC50 at SARS-CoV-2 PLpro is less than 0.5 µM. In addition, the CC50 at 2 days in data set [1] came out at 114 ± 18.7 µM.

`Cc1ccc(OCCN(C)C)cc1C(=O)N[C@@H](C)c1cc(-c2ccco2)nc2ccccc12` [Example 17, (S)-5-(2-(dimethylamino)ethoxy)-N-(1-(2-(furan-2-yl)quinolin-4-yl)ethyl)-2-methylbenzamide]: the IC50 at SARS-CoV-2 PLpro is less than 0.5 µM.

With `Cc1ccc(OCCN(C)C)cc1C(=O)N[C@H](C)c1cc(-c2cn[nH]c2)nc2ccccc12` [Example 23, (R)—N-(1-(2-(1H-pyrazol-4-yl)quinolin-4-yl)ethyl)-5-(2-(dimethylamino)ethoxy)-2-methylbenzamide], the IC50 at SARS-CoV-2 PLpro was less than 0.5 µM.

Turning to `Cc1ccc(OCCN(C)C)cc1C(=O)N[C@H](C)c1cc(-n2ccnc2)nc2ccccc12` [Example 46, (R)—N-(1-(2-(1H-imidazol-1-yl)quinolin-4-yl)ethyl)-5-(2-(dimethylamino)ethoxy)-2-methylbenzamide], at SARS-CoV-2 PLpro, the IC50 is less than 0.5 µM.

Turning to `Cc1ccc(OCCN(C)C)cc1C(=O)N[C@H](C)c1cc(-c2cnc3[nH]ncc3c2)nc2ccccc12` [Example 49, (R)—N-(1-(2-(1H-pyrazolo[3,4-b]pyridin-5-yl)quinolin-4-yl)-ethyl)-5-(2-(dimethylamino)-ethoxy)-2-methylbenzamide], the CC50 at 2 days in data set [1] is greater than 250 µM.

As for `COc1ncc(-c2cc([C@@H](C)NC(=O)c3cc(OCCN(C)C)ccc3C)c3ccccc3n2)cn1` [Example 62, (R)-5-(2-(dimethylamino)ethoxy)-N-(1-(2-(2-methoxy-pyrimidin-5-yl)quinolin-4-yl)ethyl)-2-methylbenzamide], on SARS-CoV-2 PLpro, the concentration for half-maximal inhibition (IC50) was greater than 5 µM.

In the case of `Cc1ccc(OCCN(C)C)cc1C(=O)N[C@H](C)c1cc(-c2ccc(CN3CCOCC3)o2)nc2ccccc12` [Example 72, (R)-5-(2-(dimethylamino)ethoxy)-2-methyl-N-(1-(2-(5-(morpholinomethyl)furan-2-yl)quinolin-4-yl)ethyl)benzamide], on SARS-CoV-2 PLpro, the IC50 is less than 0.5 µM.

Regarding `Cc1ccc(OC[C@@H]2CCN2C)cc1C(=O)N[C@H](C)c1cc(-c2cnn(C)c2)nc2ccccc12` [Example 75, 2-methyl-N—((R)-1-(2-(1-methyl-1H-pyrazol-4-yl)quinolin-4-yl)ethyl)-5-(((S)-1-methylazetidin-2-yl)methoxy)benzamide], on SARS-CoV-2 PLpro, the IC50 was less than 0.5 µM.

With `Cc1ccc(N2CCN(C)[C@H](C)C2)cc1C(=O)N[C@H](C)c1cc(-c2cnn(C)c2)nc2ccccc12` [Example 79, 5-((R)-3,4-dimethylpiperazin-1-yl)-2-methyl-N—((R)-1-(2-(1-methyl-1H-pyrazol-4-yl)quinolin-4-yl)ethyl)benzamide], on SARS-CoV-2 PLpro, the IC50 is less than 0.5 µM.

For `Cc1ccc(N2C[C@H]3CN(C)C[C@H]3C2)cc1C(=O)N[C@H](C)c1cc(-c2cnn(C)c2)nc2ccccc12` [Example 81, 2-methyl-N—((R)-1-(2-(1-methyl-1H-pyrazol-4-yl)quinolin-4-yl)ethyl)-5-((3aR,6aS)-5-methylhexahydropyrrolo[3,4-c]pyrrol-2(1H)-yl)benzamide], on SARS-CoV-2 PLpro, the IC50 was less than 0.5 µM.

`Cc1ccc(OC[C@H]2CCCN2C)cc1C(=O)N[C@H](C)c1cc(-c2cnn(C)c2)nc2ccccc12` [Example 83, 2-methyl-N—((R)-1-(2-(1-methyl-1H-pyrazol-4-yl)quinolin-4-yl)ethyl)-5-(((R)-1-methylpyrrolidin-2-yl)methoxy)benzamide]: the 50% inhibitory concentration (IC50) on SARS-CoV-2 PLpro is less than 0.5 µM.

Consider `CCn1ccc(-c2cc([C@@H](C)NC(=O)c3cc(OC[C@@H]4CCN4C)ccc3C)c3ccccc3n2)n1` [Example 105, N—((R)-1-(2-(1-ethyl-1H-pyrazol-3-yl)quinolin-4-yl)ethyl)-2-methyl-5-(((S)-1-methyl-azetidin-2-yl)methoxy)benzamide], for which, at SARS-CoV-2 PLpro, the IC50 was less than 0.5 µM.

`CCn1ccc(-c2cc([C@@H](C)NC(=O)c3cc(OC[C@@H]4CCCN4C)ccc3C)c3ccccc3n2)n1` [Example 109, N—((R)-1-(2-(1-ethyl-1H-pyrazol-3-yl)quinolin-4-yl)ethyl)-2-methyl-5-(((S)-1-methylpyrrolidin-2-yl)methoxy)benzamide]: the CC50 at 2 days in data set [1] turned out to be 27 ± 1.66 µM.

`Cc1ccc(N2CCN(C)CC2)cc1C(=O)NC1(c2cc(-c3cnn(C)c3)nc3ccccc23)CC1` [Example 111, 2-methyl-N-(1-(2-(1-methyl-1H-pyrazol-4-yl)quinolin-4-yl)cyclopropyl)-5-(4-methylpiperazin-1-yl)benzamide]: in data set [1], the CC50 at 2 days was greater than 150 µM.

For `Cc1ccc(N2C[C@H]3CN(C)C[C@H]3C2)cc1C(=O)NC1(c2cc(-c3cnn(C)c3)nc3ccccc23)CC1` [Example 113, 2-methyl-N-(1-(2-(1-methyl-1H-pyrazol-4-yl)quinolin-4-yl)cyclopropyl)-5-((3aR,6aS)-5-methylhexahydropyrrolo[3,4-c]pyrrol-2(1H)-yl)benzamide], in data set [1], the CC50 at 2 days was determined as 56.1 µM.

One may read the IC50 as the concentration needed to halve the response being measured. Broadly, the CC50 is the concentration at which the toxic effect on the cells reaches its halfway point.
